According to US11160797B2, “Pyridinone derivatives and their use as selective ALK-2 inhibitors” (NOVARTIS AG, priority 2017, dated 2021):

What was measured:
ALK5 (aa162-503) = ALK5 (aa162-503) (Homo sapiens (Human), UniProt P36897); experiment: Caliper biochemical peptide phosphorylation assay, ALK5; conditions: 15 uM ATP
Text: For all biochemical assays, human recombinant proteins were expressed in and purified from baculo virus transfected insect cells. The constructs comprised the GS-domain and kinase domain of wild-type ALK2 (aa172-499), ALK2 FOP mutant (aa172-499 R206H), ALK3 (aa198-525), ALK5 (aa162-503) and ALK6 (aa168-495).
A kinase selectivity panel which measures substrate peptide phosphorylation was set-up for wild-type ALK2 (aa172-499), ALK2 FOP mutant (aa172-499 R206H), ALK1 (aa166-493), ALK5 (aa162-503) and ALK6 (aa168-495). The technology used for the described assay is based on the separation and quantification of substrate and product in an electrical field. In the course of the kinase reaction the peptide substrate is phosphorylated by a kinase. […] Due to this difference in charge the phosphorylated und unphosphorylated peptides migrate with different velocities in an electrical field.
In the applied method, this separation takes place inside a chip that contains a complex capillary system for simultaneous analysis of 12 samples (“LabChip EZ Reader 12-sipper chip”, Caliper Technologies Corp., Mountain View, USA). In order to allow the detection and quantification of the peptides in the capillary system, the peptides carry a fluorescent label (fluorescein). With this label the peptides can be quantified by fluorescence intensity through the instruments laser and detection system (LC3000, Caliper Life Sciences).
The assays were performed in 384-well, low volume microtiter assay plates in a final reaction volume of 9 ul. Dose-response curves were generated by incubating 10 nM of each kinase together with 2 uM of the fluorescently labeled substrate peptide 5-Fluo-Ahx-[…]-T-[…]-amid (10 mM stock solution in DMSO) in 50 mM Hepes pH 7.5, 0.02% Tween 20, 0.02% BSA, 1 mM DTT, 10 uM Na3VO4, 10 mM ß-Glycerolphosphate, 1 mM MgCl2, 12 mM MnCl2 (ALK1 and ALK6 7 mM) and 15 uM ATP for 60 min at 30° C. in the presence or absence of compound diluted in DMSO.
Kinase reactions were terminated by adding 15 ul STOP buffer (100 mM HEPES pH 7.5, 5% DMSO, 0.1% Caliper coating reagent, 10 mM EDTA, and 0.015% Brij35.
Plates with terminated kinase reactions were transferred to the Caliper LC3000 workstation (Caliper Technologies Corp., Mountain View, USA) for reading. The relative amount of phosphorylated peptide r, was calculated using the heights of the substrate peak, s, and the product peak, p:r=p/(p+s).
IC50 values for a given antagonist correspond to the compound concentration needed to inhibit half of the maximum signal of the kinase reaction.

[1] = test system: HuH7 cells, BMP response element (BRE) luciferase reporter, BMP6 stimulated; experiment: BMP signaling reporter gene assay; format: cell-based; conditions: Homo sapiens, Huh-7; BMP6 100 ng/ml; read-out: MSD HuH7 cell BMP reporter IC50
[2] = molecular target: T1, wild-type ALK2 (aa172-499) (Homo sapiens (Human), UniProt Q04771); experiment: Caliper biochemical peptide phosphorylation assay, ALK2; conditions: Caliper peptide phosphorylation, 15 uM ATP; read-out: ALK2 IC50
T1 sequence (Q04771 172-499): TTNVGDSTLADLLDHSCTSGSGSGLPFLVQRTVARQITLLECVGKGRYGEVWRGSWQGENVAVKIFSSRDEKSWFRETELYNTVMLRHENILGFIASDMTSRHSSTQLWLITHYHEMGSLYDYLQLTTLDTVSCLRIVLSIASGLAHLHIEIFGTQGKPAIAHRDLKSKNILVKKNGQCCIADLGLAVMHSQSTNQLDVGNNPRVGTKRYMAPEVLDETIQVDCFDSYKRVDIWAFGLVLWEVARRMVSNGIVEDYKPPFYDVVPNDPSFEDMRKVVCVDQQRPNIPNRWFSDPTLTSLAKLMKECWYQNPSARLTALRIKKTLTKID

ALK3 (aa198-525) = ALK3 (aa198-525) (Homo sapiens (Human), UniProt P36894); experiment: ADPGlo biochemical autophosphorylation assay, ALK3; conditions: 15 uM ATP
Sequence of ALK3 (aa198-525) (P36894 198-525): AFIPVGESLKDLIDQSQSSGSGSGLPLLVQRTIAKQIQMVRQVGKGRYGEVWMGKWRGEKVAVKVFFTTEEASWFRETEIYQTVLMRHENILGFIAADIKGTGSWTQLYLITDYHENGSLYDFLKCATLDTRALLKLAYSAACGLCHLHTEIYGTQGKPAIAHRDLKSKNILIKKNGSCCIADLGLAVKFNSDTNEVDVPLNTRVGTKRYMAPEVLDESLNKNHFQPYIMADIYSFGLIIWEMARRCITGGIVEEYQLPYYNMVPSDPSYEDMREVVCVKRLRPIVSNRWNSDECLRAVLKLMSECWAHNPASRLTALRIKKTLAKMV

[3] = molecular target: ALK2 FOP mutant (aa172-499 R206H) (Homo sapiens (Human), UniProt Q04771, R206H); experiment: Caliper biochemical peptide phosphorylation assay, ALK2 FOP; conditions: Caliper peptide phosphorylation, R206H, 15 uM ATP; read-out: ALK2 FOP EPK IC50
Sequence of ALK2 FOP mutant (aa172-499 R206H) (Q04771 172-499 R206H): as the sequence (Q04771 172-499) above, with R35H counted along it

[4] = molecular target: T1, wild-type ALK2 (aa172-499); experiment: ADPGlo biochemical autophosphorylation assay, ALK2; conditions: 15 uM ATP
ALK6 (aa168-495) = ALK6 (aa168-495) (Homo sapiens (Human), UniProt O00238); experiment: Caliper biochemical peptide phosphorylation assay, ALK6; conditions: 15 uM ATP
Sequence of ALK6 (aa168-495) (O00238 168-495): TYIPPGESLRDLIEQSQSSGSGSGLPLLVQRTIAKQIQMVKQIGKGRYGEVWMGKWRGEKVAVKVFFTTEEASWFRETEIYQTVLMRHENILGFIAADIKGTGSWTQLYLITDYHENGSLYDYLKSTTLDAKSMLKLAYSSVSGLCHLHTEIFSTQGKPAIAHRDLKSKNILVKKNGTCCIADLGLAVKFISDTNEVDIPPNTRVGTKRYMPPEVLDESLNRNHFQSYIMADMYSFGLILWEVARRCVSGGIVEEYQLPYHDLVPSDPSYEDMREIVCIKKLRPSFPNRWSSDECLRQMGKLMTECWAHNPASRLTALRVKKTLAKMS

ALK1 (aa166-493) = ALK1 (aa166-493) (Homo sapiens (Human), UniProt P37023); experiment: Caliper biochemical peptide phosphorylation assay, ALK1; conditions: 15 uM ATP
Sequence of ALK1 (aa166-493) (P37023 166-493): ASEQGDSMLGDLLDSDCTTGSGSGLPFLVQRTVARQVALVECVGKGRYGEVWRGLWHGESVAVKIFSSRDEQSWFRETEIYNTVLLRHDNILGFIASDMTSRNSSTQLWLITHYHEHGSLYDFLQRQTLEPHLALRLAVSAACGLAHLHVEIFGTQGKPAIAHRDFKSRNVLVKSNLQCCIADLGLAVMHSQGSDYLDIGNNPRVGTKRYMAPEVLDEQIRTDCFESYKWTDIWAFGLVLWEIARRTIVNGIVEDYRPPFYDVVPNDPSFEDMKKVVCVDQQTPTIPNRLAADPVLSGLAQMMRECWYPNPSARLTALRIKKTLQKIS

Sequence of ALK5 (aa162-503) (P36897 162-503): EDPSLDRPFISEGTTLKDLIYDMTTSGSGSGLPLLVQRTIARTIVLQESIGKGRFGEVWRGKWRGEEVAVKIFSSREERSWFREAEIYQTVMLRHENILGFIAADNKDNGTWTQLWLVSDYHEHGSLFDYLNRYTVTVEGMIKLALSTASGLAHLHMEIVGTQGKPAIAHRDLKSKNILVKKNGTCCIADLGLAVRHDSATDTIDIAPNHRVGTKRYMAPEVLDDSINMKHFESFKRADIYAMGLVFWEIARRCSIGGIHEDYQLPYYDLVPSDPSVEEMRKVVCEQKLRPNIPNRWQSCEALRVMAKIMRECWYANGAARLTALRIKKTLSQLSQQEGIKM

Structure (SMILES)	IC50 (ALK5 (aa162-503))	IC50 [1]	IC50 [2]	IC50 (ALK3 (aa198-525))	IC50 [3]	IC50 [4]	IC50 (ALK6 (aa168-495))	IC50 (ALK1 (aa166-493))
CN1C(=O)Cc2cc(-c3cncc(-c4ccc(=O)n(CCC(F)(F)F)c4)c3)ccc21 [Example 16, 1-methyl-5-(6′-oxo-1′-(3,3,3-trifluoropropyl)-1′,6′-dihydro-[3,3′-bipyridin]-5-yl)indolin-2-one]	> 10000 nM	1200 nM	820 nM	15000 nM	830 nM	1100 nM	> 10000 nM	8700 nM
CN1C(=O)Cc2cc(-c3cncc(-c4ccc(=O)n(CC5CCC5)c4)c3)ccc21 [Example 11, 5-(1′-(cyclobutylmethyl)-6′-oxo-1′,6′-dihydro-[3,3′-bipyridin]-5-yl)-1-methylindolin-2-one]	> 10000 nM	640 nM	490 nM	7900 nM	470 nM	600 nM	> 10000 nM	4700 nM
CN1C(=O)Cc2cc(-c3cncc(-c4ccc(=O)n(C5CCCCO5)c4)c3)ccc21 (stereo not drawn) [Example 18, 1-methyl-5-(6′-oxo-1′-(tetrahydro-2H-pyran-2-yl)-1′,6′-dihydro-[3,3′-bipyridin]-5-yl)indolin-2-one]	> 10000 nM	420 nM	710 nM	> 15100 nM	600 nM	1000 nM	> 10000 nM	4700 nM
CC(C)N1C(=O)Cc2cc(-c3cncc(-c4ccc(=O)n(C(C)C)c4)c3)ccc21 [Example 21, 1-Isopropyl-5-(1′-isopropyl-6′-oxo-1′,6′-dihydro-[3,3′-bipyridin]-5-yl)indolin-2-one]	1800 nM	60 nM	60 nM	570 nM	53 nM	64 nM	720 nM	360 nM
CN1C(=O)Cc2cc(-c3cncc(-c4ccc(=O)n(CC(F)(F)F)c4)c3)ccc21 [Example 12, 1-methyl-5-(6′-oxo-1′-(2,2,2-trifluoroethyl)-1′,6′-dihydro-[3,3′-bipyridin]-5-yl)indolin-2-one]	> 10000 nM	800 nM	800 nM	> 15100 nM	810 nM	1500 nM	7000 nM	6800 nM
CN1C(=O)Cc2cc(-c3cncc(-c4ccc(=O)n(C)c4)c3)ccc21 [Example 19, 1-methyl-5-(1′-methyl-6′-oxo-1′,6′-dihydro-[3,3′-bipyridin]-5-yl)indolin-2-one]	> 10000 nM	1900 nM	740 nM	5400 nM	810 nM	2200 nM	9300 nM	4200 nM

Results, then the molecule that gave them:

IC50 (ALK5 (aa162-503))	IC50 [1]	IC50 [2]	IC50 (ALK3 (aa198-525))	IC50 [3]	IC50 [4]	IC50 (ALK6 (aa168-495))	IC50 (ALK1 (aa166-493))	Structure (SMILES)
4200 nM	280 nM	140 nM	1120 nM	150 nM	175 nM	1500 nM	1100 nM	CC(C)n1cc(-c2cncc(-c3ccc4c(c3)CC(=O)N4CCCO)c2)ccc1=O [Example 47, 1-(3-hydroxypropyl)-5-(1′-isopropyl-6′-oxo-1′,6′-dihydro-[3,3′-bipyridin]-5-yl)indolin-2-one]
5000 nM	130 nM	120 nM	930 nM	110 nM	150 nM	2500 nM	620 nM	CC(C)n1cc(-c2cncc(-c3ccc4c(c3)CC(=O)N4C)n2)ccc1=O [Example 46, 5-(6-(1-isopropyl-6-oxo-1,6-dihydropyridin-3-yl)pyrazin-2-yl)-1-methylindolin-2-one]
9300 nM	390 nM	190 nM	2400 nM	230 nM	350 nM	2900 nM	1300 nM	CC(C)n1cc(-c2cncc(-c3cc(F)c4c(c3)CC(=O)N4C)c2)ccc1=O [Example 36, 7-Fluoro-5-(1′-isopropyl-6′-oxo-1′,6′-dihydro-[3,3′-bipyridin]-5-yl)-1-methylindolin-2-one]
